Data set [1] is described as follows: Stability of reconstituted topotecan solution further diluted in D5W or NS in plastic bags at room temperature. Type of data set: physicochemical. As to conditions: for Percentage of Initial Topotecan Remaining in Solution: 0 hrs; for remaining at 6 h / remaining at 24 h / remaining at 48 h: read-out: Percentage of Initial Topotecan Remaining in Solution. The method, then: Topotecan is currently undergoing Phase I clinical investigation. The following pharmaceutical information is being supplied to the clinicians: • How supplied - As a vial containing 5 mg (of the base) with 100 mg mannitol. The pH is adjusted to 3.0 with HCl/NaOH. Lyophilized powder is light yellow in color. Intact vials should be stored under refrigeration (2-8 degrees Centigrade). • Solution Preparation -When the 5 mg vial is reconstituted with 2 ml of Sterile Water for Injection, USP, each ml will contain 2.5 mg of topotecan as the base and 50 mg of mannitol, USP. Topotecan must not be diluted or mixed with buffered solutions because of solubility and stability considerations. • Stability - Shelf life surveillance of the intact vials is ongoing. Because the single-use lyophilized dosage form contains no antibacterial preservatives, it is advised that the reconstituted solution be discarded eight hours after initial entry into the vial. Futher dilutions of the reconstituted solution to concentrations of 0.02 mg/ml and 0.1 mg/ml in 5% Dextrose Injection, USP, ("D5W") or 0.9% Sodium Chloride Injection, USP, ("NS") in plastic bags stored at room temperature yielded the following stability results:
Percentage of Initial Topotecan Remaining in Solution

The test system of the next data set is ovarian cancer. Put plainly: Clinical treatment of a platinum-refractory ovarian cancer patient, tumor size evaluated by CAT scan. It counts as in vivo. As to conditions: one human patient, intravenous 1.5 mg/m^2 per day for five consecutive days. The procedure: One human patient with ovarian cancer, who was refractory to two previous platinum-containing regimens (i.e., cisplatin-cyclophosphamide combination regimen and treatment with single agent carboplatin), received a course of therapy comprising intravenous administration of 1.5 mg of topotecan/m^2 of body surface area per day for five consecutive days. This course of therapy was repeated […] nine more times to date at twenty-one day intervals (from the date of initiation of therapy) for a total of ten treatments. Tumor size regression was evaluated by CAT (computerized axial tomography) scan. […] At least until the tenth treatment, this clinically significant response was sustained, i.e., a greater than fifty percent (50%) tumor size regression was obtained.

Data set [2] is described as follows: Hang-bag stability of topotecan diluted in saline or dextrose. Type of data set: physicochemical. The note with it: read-out: recovery. The procedure:
Topotecan diluted in saline (10 ug/ml or 500 ug/ml) or dextrose (6.7 ug/ml or 330 ug/ml) is stable in a hang-bag for 24 hours with at least 95% recovery.

1 compound from patent EP1707568A2, “A pharmaceutical composition for use in the treatment of ovarian cancer in a human afflicted therewith” (SMITHKLINE BEECHAM CORPORATION, priority 1991, dated 1992) can be followed below.

Read-outs that look alike come from different tables or passages of the source. Bounds are passed on as bounds.

For the compound `CC[C@@]1(O)C(=O)OCc2c1cc1n(c2=O)Cc2cc3c(CN(C)C)c(O)ccc3nc2-1` [Topotecan, (S)-9-dimethylaminomethyl-10-hydroxycamptothecin], the “Percentage of Initial Topotecan Remaining in Solution” value in data set [1] (D5W, 0.02 mg/ml) came to 100.00%; in data set [1] (D5W, 0.1 mg/ml), 100.00%; in data set [1] (NS, 0.02 mg/ml) it was 100.00%; in data set [1] (NS, 0.1 mg/ml) it was 100.00%. In addition, the remaining at 6 h in data set [1] (d5w, 0.02 mg/ml) was 99.3%; in data set [1] (d5w, 0.1 mg/ml), 99.7%; in data set [1] (ns, 0.02 mg/ml), 98.6%; in data set [1] (ns, 0.1 mg/ml), 97.7%. Moreover, the remaining at 24 h in data set [1] (d5w, 0.02 mg/ml) was 102%; in data set [1] (d5w, 0.1 mg/ml), 98.2%; in data set [1] (ns, 0.02 mg/ml), 96%; in data set [1] (ns, 0.1 mg/ml), 98.3%; in data set [2] (dextrose, 6.7 ug/ml) it was not below 95%; in data set [2] (saline, 10 ug/ml), not below 95%. Also, the remaining at 48 h was determined as 102% in data set [1] (d5w, 0.02 mg/ml); 97.9% in data set [1] (d5w, 0.1 mg/ml); 102% in data set [1] (ns, 0.02 mg/ml); 98.3% in data set [1] (ns, 0.1 mg/ml). For the same compound, the Tumor size regression entry with ovarian cancer (following four courses) is reported as “An even greater response was observed”; in the data set on ovarian cancer (following two courses of therapy), “Tumor size regression was observed”; in the data set with ovarian cancer (sustained at least until the tenth treatment), more than 50%.
